The values that follow come from US20150367004A1, “COMPOSITIONS AND METHODS OF DIAGNOSING OCULAR DISEASES” (MOLECULAR TARGETING TECHNOLOGIES, INC., priority 2012, published 2015).

For the test, the system named is corneal surface after BAC-induced toxicity. The experiment in a line: In vivo fluorescence imaging of the cornea after BAC-induced corneal toxicity, compared with lissamine green staining. The arrangement: species or system rat. To be noted: 0.1% and 0.2% BAC twice daily for 7 days. The method, then: Adult Wistar rats were given topical instillation of 0.2, 0.1 and 0.02% BAC in 0.9% balanced salt solution (BSS) twice daily for 7 days. External ocular examination was performed and lissamine green staining was used to evaluate the corneal damage prior to and after experiments. One hour after topical Zn-DPA 480 administration, convention light and fluorescence images were taken on animals.
There was no remarkable change on the cornea after administration of BSS. Results are illustrated in FIG. 3.

Turning to `CN(C)c1ccc(C(=C2C=CC(=[N+](C)C)C=C2)c2c(O)c(S(=O)(=O)[O-])cc3cc(S(=O)(=O)[O-])ccc23)cc1.[Na+]` [lissamine green], the Corneal staining result is “positive lissamine green staining”.
